From patent US20250195501A1, “CELL ENTRY-MODULATING AGENTS AND USES THEREFOR” (priority 2020, published 2025) come the findings set out here.

The subject of one data set is Vero-E6 cells. To be noted: for CC50: read-out: CC50 Mean ± SD, Vero-E6 cells, 24 h at 37° C., no virus, alamarBlue.
Data set [1] deals with T1, ACE2:RBD-mimic1 peptide interaction (Homo sapiens, UniProt Q9BYF1).
T1 construct: purchased R&D Systems and Assay Matrix (ACE2); Mimotopes (peptide)
Description: Direct competition SPR: compound vs RBD-mimic1 peptide binding to human ACE2. Conditions: compound and RBD-mimic1 peptide flowed at 1 μM over human ACE2. The method, then: Peptide alone, compound alone and the competition. Percentage competition is calculated by the reduction in final peptide binding divided by the difference between the peptide and the compound alone.
All SPR sensorgrams and results plots were analyzed with Biacore S200 Evaluation Software (GE Healthcare Life Sciences).

The next data set has as its system SARS-CoV-2. Description: microbe, parasite or virus in culture. It is filed as cell-based. Conditions: for SI (selectivity index, CC50/IC50): Vero-E6 cells; for IC50: read-out: IC50 Mean ± SD (SARS-CoV-2 infection).

As a reminder, the CC50 is the concentration that lowers cell viability or growth by half. By IC50 is commonly meant the concentration at which inhibition is half-maximal.

Read-outs that look alike come from different tables or passages of the source.

T1 sequence (Q9BYF1 18-740 limits assumed): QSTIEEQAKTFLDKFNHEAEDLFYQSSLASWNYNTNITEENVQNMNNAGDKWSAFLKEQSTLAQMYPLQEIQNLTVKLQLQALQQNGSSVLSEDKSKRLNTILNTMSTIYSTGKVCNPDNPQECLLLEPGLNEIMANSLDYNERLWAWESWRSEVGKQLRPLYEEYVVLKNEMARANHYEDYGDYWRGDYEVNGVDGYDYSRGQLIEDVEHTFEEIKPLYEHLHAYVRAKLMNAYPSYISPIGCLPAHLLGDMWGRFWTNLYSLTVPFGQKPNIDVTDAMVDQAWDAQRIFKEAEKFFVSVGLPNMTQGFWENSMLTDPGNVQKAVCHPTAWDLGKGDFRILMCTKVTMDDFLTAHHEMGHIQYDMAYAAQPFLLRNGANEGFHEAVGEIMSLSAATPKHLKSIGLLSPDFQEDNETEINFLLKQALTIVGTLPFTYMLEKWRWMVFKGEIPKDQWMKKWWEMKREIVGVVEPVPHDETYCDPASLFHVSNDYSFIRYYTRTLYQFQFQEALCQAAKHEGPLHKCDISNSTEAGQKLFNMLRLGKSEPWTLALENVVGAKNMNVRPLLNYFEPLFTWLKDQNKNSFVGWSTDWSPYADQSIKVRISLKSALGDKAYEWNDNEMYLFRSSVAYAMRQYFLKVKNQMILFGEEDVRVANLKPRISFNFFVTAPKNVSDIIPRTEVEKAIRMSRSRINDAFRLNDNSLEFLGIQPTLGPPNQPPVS

Consider `CCc1c2c(nc3ccc(OC(=O)N4CCC(N5CCCCC5)CC4)cc13)-c1cc3c(c(=O)n1C2)COC(=O)[C@]3(O)CC` [Irinotecan], for which the “toxicity toward Vero-E6 cells in the infection assay” value (“toxicity toward Vero-E6 cells” below) in the data set with Vero-E6 cells is on record as “toxicity was observed”. For the same compound, in data set [1], the “1:1 Competition between compound vs RBD-mimic1 peptide @ 1 μM (block: Yes/Partial)” value was “Yes” and the “1:1 Competition between compound vs RBD-mimic1 peptide @ 1 μM (percentage competition)” value is listed as “(100% ± 6.36)”.
As for `Cc1cc(-c2ccc(/N=N/c3ccc4c(S(=O)(=O)[O-])cc(S(=O)(=O)[O-])c(N)c4c3O)c(C)c2)ccc1/N=N/c1ccc2c(S(=O)(=O)[O-])cc(S(=O)(=O)[O-])c(N)c2c1O.[Na+].[Na+].[Na+].[Na+]` [Evans Blue], in the data set with Vero-E6 cells, the “toxicity toward Vero-E6 cells” value was “low toxicity” and the CC50 is > 1000 µM. In data set [1], the “1:1 Competition between compound vs RBD-mimic1 peptide @ 1 μM (block: Yes/Partial)” value was “completely block and Yes”; the “1:1 Competition between compound vs RBD-mimic1 peptide @ 1 μM (percentage competition)” value is recorded as ~100%. In the data set with SARS-CoV-2, the “SI (selectivity index, CC50/IC50)” value is on record as >35.6 and the half-inhibitory concentration (IC50) worked out at 28.1 ± 1.2 µM.
Turning to `Cc1ccc(C(=O)Nc2ccc(S(=O)(=O)O)c3cc(S(=O)(=O)O)cc(S(=O)(=O)O)c23)cc1NC(=O)c1cccc(NC(=O)Nc2cccc(C(=O)Nc3cc(C(=O)Nc4ccc(S(=O)(=O)O)c5cc(S(=O)(=O)O)cc(S(=O)(=O)O)c45)ccc3C)c2)c1` [Suramin], the half-maximal cytotoxic concentration (CC50) in the data set on Vero-E6 cells is > 1000 µM. The IC50 with SARS-CoV-2 (Severe acute respiratory syndrome coronavirus 2, Vero C1008, 24 h) was found to be 28.1 ± 1.2 µM. Also, the “SI (selectivity index, CC50/IC50)” value in the data set on SARS-CoV-2 was >21.6.
Turning to `CC1(C)CCC(CN2CCN(c3ccc(C(=O)NS(=O)(=O)c4ccc(NCC5CCOCC5)c([N+](=O)[O-])c4)c(Oc4cnc5[nH]ccc5c4)c3)CC2)=C(c2ccc(Cl)cc2)C1` [Venetoclax], the “toxicity toward Vero-E6 cells” value in the data set on Vero-E6 cells is “toxicity was observed”. The “1:1 Competition between compound vs RBD-mimic1 peptide @ 1 μM (block: Yes/Partial)” value in data set [1] was “Partial”.
In the same order, the values of Ledipasvir are “toxicity was observed” and “Partial”.
The like results for `COC[C@H]1C[C@@H](c2nc(-c3ccc4c(c3)COc3cc5c(ccc6nc([C@@H]7CC[C@H](C)N7C(=O)[C@@H](NC(=O)OC)C(C)C)[nH]c65)cc3-4)c[nH]2)N(C(=O)[C@H](NC(=O)OC)c2ccccc2)C1` [Velpatasvir] were, in that order, “toxicity was observed” and “Partial”.
